Consider 12 molecules from patent publication US20240252477A1, “NLRP3 INFLAMMASOME-INHIBITING COMPOUNDS AND THE USE THEREOF” (UNIVERSITA' DEGLI STUDI DI TORINO (60%), priority 2021, published 2024).

One data set concerns the target T1, NLRP3 inflammasome (Homo sapiens, UniProt Q96P20).
T1 construct: The THP-1 cells were differentiated into macrophages by treating them with PMA 50 nM; endogenous in cells; host or cells: THP-1 (human monocytic leukaemia line), PMA-differentiated, primed with LPS, triggered with ATP
Description: NLRP3-dependent pyroptosis (LDH release) in PMA-differentiated THP-1 cells stimulated with LPS/ATP. The class given is cell-based. The conditions noted are these: compounds at 10 μM for 1 hour, differentiated THP-1, LPS 10 μg/mL 4 hours, ATP 1.5 hours; for inhibition at 10 µM: read-out: Pyroptosis inhibition (% ± SEM). Here is the method: THP-1 cells, a monocytic human cell line derived from the peripheral blood of a patient suffering from acute monocytic leukaemia (www.atcc.org), were cultured in RPMI 1640 medium (Aurogene, Rome, Italy), with the addition of foetal bovine serum (10%, Aurogene), L-glutamine (2 mM, Aurogene), penicillin (100 IU/ml, Aurogene) and streptomycin ([…], Aurogene). The medium was changed every 2-3 days, and the cells were maintained in an incubator at 37° C., with 5% CO2, and with suitable humidity.
The cells were seeded in 48-well plates (90.000 cells/well), and differentiated with phorbol 12-myristate 13-acetate (PMA—50 nM, 24 hours; Sigma-Aldrich). On the next day, the differentiated THP-1s were washed twice with the balanced saline solution phosphate-buffered saline (PBS), and stimulated with lipopolysaccharide (LPS) (10 μg/mL, 4 hours; Sigma-Aldrich), prepared in serum-free medium. After 4 hours the cells were incubated with the compounds at the concentration of 10 μM for 1 hour, operating in triplicate; INF176 and INF177 were tested at three different concentrations: […]. Finally, the cells were stimulated with ATP 5 mm for 1.5 hours. The supernatants were then harvested for the subsequent analyses.
LDH release into the supernatant obtained as described above was quantified using the CytoTox 96 nonradioactive cytotoxicity assay (Promega Corporation, Madison, […], USA), a colorimetric assay wherein LDH activity is measured with an NADH-dependent enzymatic reaction:
Briefly, an equal volume of CytoTox Reagent was added to the supernatant and, after 30 minutes' incubation, the reaction was stopped by adding the stop solution. The formazan concentration was determined by measuring absorbance, using a microplate reader (Victor X4—EnSight, PerkinElmer, Waltham, MA, USA), at λ=490 nm. Cell death was expressed according to the manufacturer's instructions.
The compound INF176 was tested to measure its ability to inhibit NLRP3-dependent cell pyroptosis in human macrophages, using the experimental protocol previously published [Cocco et al. 2017].
The THP-1 cells were differentiated into macrophages by treating them with PMA 50 nM (24 hours) and then with LPS (10 μg/mL) for 4 hours. The cells were treated with the compound (10 μM) for 1 hour. Pyroptosis was induced by treatment with ATP 5 mm. After 90 minutes, cell death was evaluated by measuring the LDH level in the cell supernatant using the CytoTox 96 Non-Radioactive Cytotoxicity Assay (Promega Corporation, Madison, […], USA).

Another data set in a line: Cytotoxicity (MTT assay). The class given is cell-based, human. Particulars: human; THP-1 cells, 72 hours' incubation. Here is the method: (§1) The THP-1 cells were seeded in a 96-well plate (15.000 cells/well) and incubated with the test compounds at four different concentrations (0.1, 1, 10 and 100 μM), operating in triplicate. The cells were placed in an incubator at 37° C., with 5% CO2, and cell viability was measured after 72 hours' incubation, using the MTT assay. This is a colorimetric assay, based on conversion of water-soluble 3-(4,5-dimethylthiazol-2-yl)-2,5-diphenyltetrazolium bromide (MTT; Sigma-Aldrich) to a violet-coloured insoluble formazan, by the mitochondrial dehydrogenase present in the live cells. The formazan is solubilised in acidified isopropanol, and the concentration is determined by measuring absorbance with a microplate reader (Victor X4—Ensight, PerkinElmer) at λ=570 nm. Viability was expressed as a percentage of the viability of the control cells, which were either untreated or treated with the carrier. The IC50 was calculated with the Graph Pad Prism software.
(In general: Tetrazolium assays rely on reduction of a dye to a coloured formazan, in cell work by metabolically active cells.)

Data set [1] in a line: Stability in PBS pH 7.4 with excess glutathione or cysteamine (HPLC). The class given is physicochemical. Particulars: 100 μM, PBS pH 7.4, 37° C. Here is the method:
The compound INF177 was incubated at the concentration of 100 μM in PBS pH 7.4 (0.1% DMSO) at 37° C., in the absence and in the presence of excess glutathione or cysteamine (10×). The reaction mixture underwent repeated HPLC analyses over 24 hours.
The HPLC analysis was conducted with an HP 1200 chromatography system (Agilent Technologies, Palo Alto, CA, USA) consisting of an integrated quaternary pump (model G1311A), degasser (model G1322A), UV MWD detector (model G1365D) and fluorescence detector (model G1321A). The data were processed with the HP ChemStation system program (Agilent Technologies).
The analyses were conducted using the ZORBAX SB-Phenyl column (250×4.6 mm, 5 μm; Agilent) as stationary phase and CH3CN/H2O (+0.1% HCOOH), 70/30 (v/v), flow rate=1.0 mL/min, as mobile phase, injecting 20 μL of sample (Rheodyne, Cotati, CA); the chromatograms were acquired at the wavelengths of 234 and 250 nm.

Another data set has as its system THP-1 cells. Put plainly: Cytotoxicity (MTT assay). The class given is cell-based, human. Here is the method: as §1
In a further data set the target is T2, IL-1beta (Homo sapiens, UniProt P01584).
T2 construct: host or cells: patients (clinical trial)
The conditions noted are these: cited from earlier work.

In general, inhibition refers to the drop in the measured response relative to a control, in per cent. As usually defined, the IC50 is the point on the concentration scale where inhibition reaches its midpoint. As usually defined, the melting point is the temperature, or range, at which the solid turns liquid.

T1 sequence (Q96P20 whole entry): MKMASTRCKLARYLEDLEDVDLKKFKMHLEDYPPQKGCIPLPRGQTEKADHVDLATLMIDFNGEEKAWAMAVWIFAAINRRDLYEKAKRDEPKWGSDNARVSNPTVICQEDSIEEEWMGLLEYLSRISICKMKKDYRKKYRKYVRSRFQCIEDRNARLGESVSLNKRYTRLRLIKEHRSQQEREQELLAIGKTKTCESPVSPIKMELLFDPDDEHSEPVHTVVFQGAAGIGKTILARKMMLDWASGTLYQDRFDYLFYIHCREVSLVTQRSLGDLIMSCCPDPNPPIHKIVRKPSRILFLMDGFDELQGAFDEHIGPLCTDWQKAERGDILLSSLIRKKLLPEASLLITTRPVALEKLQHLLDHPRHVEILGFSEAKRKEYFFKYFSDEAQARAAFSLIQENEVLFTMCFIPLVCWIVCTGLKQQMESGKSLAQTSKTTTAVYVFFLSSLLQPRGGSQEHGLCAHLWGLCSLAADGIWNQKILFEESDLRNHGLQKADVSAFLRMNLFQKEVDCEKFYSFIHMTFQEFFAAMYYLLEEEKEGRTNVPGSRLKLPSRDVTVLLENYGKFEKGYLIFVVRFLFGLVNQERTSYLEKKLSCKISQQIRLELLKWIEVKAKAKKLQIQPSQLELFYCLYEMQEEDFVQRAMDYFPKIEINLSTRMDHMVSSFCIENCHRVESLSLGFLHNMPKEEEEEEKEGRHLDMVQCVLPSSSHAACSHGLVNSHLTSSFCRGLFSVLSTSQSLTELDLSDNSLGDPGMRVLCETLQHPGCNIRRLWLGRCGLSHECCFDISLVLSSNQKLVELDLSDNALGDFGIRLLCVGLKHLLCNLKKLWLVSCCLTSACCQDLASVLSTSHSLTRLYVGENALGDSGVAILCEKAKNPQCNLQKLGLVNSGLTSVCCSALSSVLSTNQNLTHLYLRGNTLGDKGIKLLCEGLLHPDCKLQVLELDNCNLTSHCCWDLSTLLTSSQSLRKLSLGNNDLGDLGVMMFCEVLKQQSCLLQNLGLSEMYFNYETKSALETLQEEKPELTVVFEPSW

`O=C(O)C1CCCN(C(=O)/C(=C/c2ccccc2Cl)CSc2ccccc2)C1` (centres unmarked) [INF177, (Z)-1-(3-(2-chlorophenyl)-2-((phenylthio)methyl)acryloyl)piperidine-3-carboxylic acid]: the inhibition at 10 µM at NLRP3 inflammasome came to 20.1 ± 9.8%. This molecule returned an IC50 at 72 h in “Cytotoxicity (MTT assay)” above 100 µM. Besides, the “reactivity towards glutathione or cysteamine” value in data set [1] (10× excess thiol, over 24 hours) is “no appreciable reactivity was observed”. Moreover, the “% compound remaining” value is above 98% in data set [1] (cysteamine 10×, after 2.5 hours); above 98% in data set [1] (glutathione 10×, after 4 hours); at least 96% in data set [1] (glutathione or cysteamine 10×, 24 hours).

With `CCOC(=O)C1CCN(C(=O)/C(=C/c2ccccc2Cl)CSc2ccccc2)CC1` [INF180, ethyl (Z)-1-(3-(2-chlorophenyl)-2-((phenylthio)methyl)acryloyl)piperidine-4-carboxylate], the inhibition at 10 µM at NLRP3 inflammasome stood at 13.8 ± 7.1%. Besides, the IC50 at 72 h in the data set “Cytotoxicity (MTT assay)” was above 100 µM.

Take `CCOC(=O)C1CCN(C(=O)C(CSc2ccccc2)Cc2ccccc2Cl)CC1` (centres unmarked) [INF186, ethyl 1-(2-(2-chlorobenzyl)-3-(phenylthio)propanoyl)piperidine-4-carboxylate]: the inhibition at 10 µM at NLRP3 inflammasome was below 10%. Also, it took 94.6 ± 4 µM to reach half-maximal inhibition in the data set “Cytotoxicity (MTT assay)” (IC50 at 72 h).

Regarding `O=C(O)C1CCN(C(=O)/C(=C/c2ccccc2Cl)CSc2ccccc2)CC1` [INF187, (Z)-1-(3-(2-chlorophenyl)-2-((phenylthio)methyl)acryloyl)piperidine-4-carboxylic acid], at NLRP3 inflammasome, the inhibition at 10 µM was below 10%. Besides, in the data set “Cytotoxicity (MTT assay)”, the concentration for half-maximal inhibition (IC50) at 72 h is above 100 µM.

As to `CCOC(=O)C1CCN(C(=O)/C(=C/c2ccccc2Cl)CSC2CCCCC2)CC1` [INF188, ethyl (Z)-1-(3-(2-chlorophenyl)-2-((cyclohexylthio)methyl)acryloyl)piperidine-4-carboxylate], the inhibition at 10 µM on NLRP3 inflammasome is below 10%. The molecule also yielded an IC50 at 72 h in “Cytotoxicity (MTT assay)” of 58.6 ± 5.3 µM.

For `CCOC(=O)C1CCCN(C(=O)C(CSC2CCCCC2)Cc2ccccc2Cl)C1` (centres unmarked) [INF192, ethyl 1-(2-(2-chlorobenzyl)-3-(cyclohexylthio)propanoyl)piperidine-3-carboxylate], the inhibition at 10 µM on NLRP3 inflammasome amounted to 62.2 ± 9.78%. In the data set “Cytotoxicity (MTT assay)”, the half-maximal inhibitory concentration (IC50) at 72 h was determined as 59.8 ± 0.7 µM.

Regarding `CCOC(=O)C1CCN(C(=O)C(CSC2CCCCC2)Cc2ccccc2Cl)CC1` (centres unmarked) [INF193, ethyl 1-(2-(2-chlorobenzyl)-3-(cyclohexylthio)propanoyl)piperidine-4-carboxylate], the inhibition at 10 µM on NLRP3 inflammasome was below 10%. In addition, the midpoint of inhibition in “Cytotoxicity (MTT assay)”, the IC50 at 72 h, lay at 77.5 ± 7.3 µM.

Take `CCOC(=O)C1CCCN(C(=O)/C(=C/c2ccccc2Cl)CSC2CCCCC2)C1` (centres unmarked) [INF194, ethyl (Z)-1-(3-(2-chlorophenyl)-2-((cyclohexylthio)methyl)acryloyl)piperidine-3-carboxylate]: at NLRP3 inflammasome, the inhibition at 10 µM is below 10%. The same molecule registered an IC50 at 72 h in the data set “Cytotoxicity (MTT assay)” of 78.3 ± 10.2 µM.

Molecule `NC(=O)C1CCCN(C(=O)/C(=C/c2ccccc2Cl)CSc2ccccc2)C1` (centres unmarked) [INF219, (Z)-1-(3-(2-chlorophenyl)-2-((phenylthio)methyl)acryloyl)piperidine-3-carboxamide] gave a melting point of 60.5 to 61.4 °C. For the same molecule, the inhibition at 10 µM at NLRP3 inflammasome stood at 13 ± 8.2%. The molecule also displayed an IC50 at 72 h in the data set “Cytotoxicity (MTT assay)” above 100 µM.

Turning to `NS(=O)(=O)c1ccc(CCNC(=O)/C(=C/c2ccccc2Cl)CSc2ccccc2)cc1` [INF220, (Z)-3-(2-chlorophenyl)-2-((phenylthio)methyl)-N-(4-sulphamoylphenethyl)acrylamide], the inhibition at 10 µM at NLRP3 inflammasome was determined as 73.9 ± 13.9%. Besides, the IC50 at 72 h in the data set “Cytotoxicity (MTT assay)” was above 62.5 µM.

With “(Z)-3-(2-chlorophenyl)-2-((phenylthio)methyl)acrylic acid [INF80]”, the “Pyroptosis inhibition (% ± SEM)” value at NLRP3 inflammasome was below 10%. Inhibition in the data set with THP-1 cells was half-maximal at 92.8 ± 1.6 µM (IC50).

Turning to canakinumab, the “reduction in lung cancer deaths” value with IL-1beta (after treatment with canakinumab) is 77%. The “change in mortality due to cardiovascular events” value with IL-1beta (patients at cardiovascular risk) is given as −31%.
